In patent EP4803513A1, “SUBSTITUTED QUINAZOLINE COMPOUND, PREPARATION METHOD THEREFOR, PHARMACEUTICAL COMBINATION THEREOF, AND USE THEREOF” (Hongyun Biotech Co., Ltd., priority 2023, dated 2025):

What was measured:
[1] = tested on: BRK-BaF3 cells; assay: Cell antiproliferative activity assay (CCK-8), BRK-BaF3; format: cell-based; conditions: 72 h, CCK-8, 3 days incubation
Procedure: (§1) The activity of compounds against BRK kinase can be evaluated by their inhibition of the growth of the BRK kinase-stably transfected BaF3 cell line (BRK-BaF3) and wild-type BaF3 cells (WT-BaF3). […] The larger the ratio of the half-maximal growth inhibitory concentration (IC50) of a compound between WT-BaF3 and BRK-BaF3 cells, the better the selectivity of the compound.
(§2) BRK-BaF3, WT-BaF3, WEHI cell line, and breast cancer cell line T47D were cultured using RPMI 1640 Basal medium or DMEM (Dulbecco's Modified Eagle Medium) (Shanghai Peiyuan Biotechnology, L220KJ), supplemented with 10% FBS (Gibco, REF 10099-141C) and 1% P/S (Shanghai Peiyuan Biotechnology, S110JV), in an incubator (Thermo 3020) at 37°C with 5% CO2. Cell viability was above 95%. Cells were passaged at a 3:1 ratio every 3-4 days. For WT-BaF3 cells, WEHI cells were first cultured, and their culture supernatant was filtered through a 0.22 µm filter. This supernatant was added at 10% to the regular culture medium to supplement IL-3 required for WT-BaF3 cell proliferation, which served as the culture medium for WT-BaF3. For testing, cells were first collected and counted, then prepared into a cell suspension at 100,000 cells/mL and plated at 100 µL per well. Drug concentrations started from 10 µM and were serially diluted 3:1. After incubation for 3 days, 20 µL of CCK-8 detection reagent (Targetmol C005) was added to each well. After incubation for 2-4 hours, OD450 was measured using a microplate reader (Varioskan LUX, Thermo Scientific). After subtracting the blank background, the curve was fitted and the IC50 was calculated using XLfit software.

[2] = tested on: WT-BaF3 cells; assay: Cell antiproliferative activity assay (CCK-8), WT-BaF3 (broad-spectrum cytotoxicity); format: cell-based; conditions: 72 h; WT-BaF3 cells (IL-3 supplemented), CCK-8, 3 days incubation
Procedure: as §1, §2

| Compound | IC50 [1] [nM] | IC50 [2] [nM] |
| --- | --- | --- |
| Cc1cnccc1-c1cc(C(C)C)c2nc(Nc3cn(CCO)nc3C)ncc2c1 [I-12] | ≤ 20 | 500 to 2500 |
| COc1cnccc1-c1cc(C(C)C)c2nc(Nc3cn(CCO)nc3C)ncc2c1 [I-13] | ≤ 20 | > 2500 |
| Cc1cnc(F)cc1-c1cc(C(C)C)c2nc(Nc3cn(CCO)nc3C)ncc2c1 [I-17] | ≤ 20 | 500 to 2500 |
| COc1ncccc1-c1cc(C(C)C)c2nc(Nc3cn(CCO)nc3C)ncc2c1 [I-25] | ≤ 20 | > 2500 |
| Cc1nn(CCO)cc1Nc1ncc2cc(-c3cccnc3C#N)cc(C(C)C)c2n1 [I-26] | ≤ 20 | > 2500 |
| Cc1nn(CCO)cc1Nc1ncc2cc(-c3cccnc3C3CC3)cc(C(C)C)c2n1 [I-28] | 20 to 100 | 500 to 2500 |
| Cc1nn(CCO)cc1Nc1ncc2cc(-c3cnccc3F)cc(C(C)C)c2n1 [I-31] | ≤ 20 | > 2500 |
| COc1ccncc1-c1cc(C(C)C)c2nc(Nc3cn(CCO)nc3C)ncc2c1 [I-33] | ≤ 20 | > 2500 |
| Cc1nn(CCO)cc1Nc1ncc2cc(-c3cnccc3C#N)cc(C(C)C)c2n1 [I-34] | ≤ 20 | > 2500 |
| Cc1nn(CCO)cc1Nc1ncc2cc(-c3cc(F)cnc3F)cc(C(C)C)c2n1 [I-40] | ≤ 20 | > 2500 |
| Cc1nn(CCO)cc1Nc1ncc2cc(-c3cc(C#N)cnc3C)cc(C(C)C)c2n1 [I-42] | ≤ 20 | > 2500 |
| Cc1nn(CCO)cc1Nc1ncc2cc(-c3c(Cl)ccnc3Cl)cc(C(C)C)c2n1 [I-44] | ≤ 20 | 500 to 2500 |
| Cc1nn(CCO)cc1Nc1ncc2cc(-c3c(F)ccnc3Cl)cc(C(C)C)c2n1 [I-45] | ≤ 20 | > 2500 |
| Cc1ccnc(C)c1-c1cc(C(C)C)c2nc(Nc3cn(CCO)nc3C)ncc2c1 [I-47] | ≤ 20 | 500 to 2500 |
| Cc1nn(CCO)cc1Nc1ncc2cc(-c3c(Cl)ccnc3N)cc(C(C)C)c2n1 [I-49] | ≤ 20 | > 2500 |
| Cc1ccnc(N)c1-c1cc(C(C)C)c2nc(Nc3cn(CCO)nc3C)ncc2c1 [I-50] | ≤ 20 | > 2500 |
| Cc1ncc(F)cc1-c1cc(C(C)C)c2nc(Nc3cnn(CCO)c3)ncc2c1 [I-52] | ≤ 20 | > 2500 |
| Cc1ncccc1-c1cc(C(C)C)c2nc(Nc3cnn(CCO)c3C)ncc2c1 [I-66] | 20 to 100 | 500 to 2500 |
| Cc1nn(CCO)cc1Nc1ncc2cc(-c3cccnc3)cc(C3CC3)c2n1 [I-72] | ≤ 20 | 100 to 500 |
| Cc1nn(CCO)cc1Nc1ncc2cc(-c3cc(F)cnc3C)cc(C3CC3)c2n1 [I-74] | ≤ 20 | 500 to 2500 |
| Cc1nn(CCO)cc1Nc1ncc2cc(-c3cccnc3)cc(C(F)(F)F)c2n1 [I-75] | ≤ 20 | > 2500 |
| Cc1nn(CCO)cc1Nc1ncc2cc(-c3cccnc3C)cc(C(F)(F)F)c2n1 [I-76] | ≤ 20 | > 2500 |

| Compound | IC50 [1] [nM] | IC50 [2] [nM] |
| --- | --- | --- |
| Cc1ccnc(C)c1-c1cc(C(F)(F)F)c2nc(Nc3cn(CCO)nc3C)ncc2c1 [I-77] | ≤ 20 | 500 to 2500 |
| Cc1nn(CCO)cc1Nc1ncc2cc(-c3nccnc3F)cc(C(C)C)c2n1 [I-79] | ≤ 20 | 500 to 2500 |
| COc1nccnc1-c1cc(C(C)C)c2nc(Nc3cn(CCO)nc3C)ncc2c1 [I-82] | 20 to 100 | 500 to 2500 |
| Cc1nn(CCO)cc1Nc1ncc2cc(-c3nccnc3N)cc(C(C)C)c2n1 [I-84] | ≤ 20 | > 2500 |
| Cc1cncc(-c2cc(C(C)C)c3nc(Nc4cn(CCO)nc4C)ncc3c2)n1 [I-90] | ≤ 20 | 500 to 2500 |
| Cc1nn(CCO)cc1Nc1ncc2cc(-c3cncc(N)n3)cc(C(C)C)c2n1 [I-93] | 20 to 100 | > 2500 |
| Cc1cnc(C)c(-c2cc(C(C)C)c3nc(Nc4cn(CCO)nc4C)ncc3c2)n1 [I-96] | 20 to 100 | > 2500 |
| Cc1nccnc1-c1cc(C(C)C)c2nc(Nc3cnn(CCO)c3)ncc2c1 [I-97] | ≤ 20 | 500 to 2500 |
| Cc1nccnc1-c1cc(C(C)C)c2nc(Nc3cn(CCO)nc3C(F)F)ncc2c1 [I-99] | ≤ 20 | 500 to 2500 |
| Cc1nn(CCCO)cc1Nc1ncc2cc(-c3nccnc3C)cc(C(C)C)c2n1 [I-100] | ≤ 20 | 500 to 2500 |
| Cc1nn(CC(C)(C)O)cc1Nc1ncc2cc(-c3nccnc3C)cc(C(C)C)c2n1 [I-101] | ≤ 20 | > 2500 |
| Cc1nccnc1-c1cc(C(C)C)c2nc(Nc3cnn(CCO)c3C)ncc2c1 [I-102] | ≤ 20 | > 2500 |
| Cc1nn(CCO)cc1Nc1ncc2cc(-c3nccnc3C)cc(C3CC3)c2n1 [I-103] | ≤ 20 | 500 to 2500 |
| Cc1nn(CCO)cc1Nc1ncc2cc(-c3nccnc3Cl)cc(C3CC3)c2n1 [I-104] | ≤ 20 | > 2500 |
| Cc1nn(CCO)cc1Nc1ncc2cc(-c3nccnc3N)cc(C3CC3)c2n1 [I-105] | ≤ 20 | 500 to 2500 |
| Cc1nccnc1-c1cc(C2CC2)c2nc(Nc3cnn(CCO)c3)ncc2c1 [I-107] | ≤ 20 | 500 to 2500 |
| Cc1nccnc1-c1cc(C(F)(F)F)c2nc(Nc3cnn(CCO)c3)ncc2c1 [I-110] | ≤ 20 | > 2500 |
| Cc1nn(CCO)cc1Nc1ncc2cc(-c3nnccc3C#N)cc(C(C)C)c2n1 [I-117] | 20 to 100 | > 2500 |
| Cc1nn(CCO)cc1Nc1ncc2cc(-c3nnccc3C#N)cc(C3CC3)c2n1 [I-118] | 20 to 100 | > 2500 |
| Cc1ccnnc1-c1cc(C(F)(F)F)c2nc(Nc3cn(CCO)nc3C)ncc2c1 [I-122] | ≤ 20 | 500 to 2500 |
| Cc1nn(CCO)cc1Nc1ncc2cc(-c3cncnc3)cc(C(C)C)c2n1 [I-123] | 20 to 100 | 500 to 2500 |
| Cc1nn(CCO)cc1Nc1ncc2cc(-c3cncnc3N)cc(C(C)C)c2n1 [I-124] | 20 to 100 | > 2500 |

| Compound | IC50 [1] [nM] | IC50 [2] [nM] |
| --- | --- | --- |
| Cc1nn(CCO)cc1Nc1ncc2cc(-c3c(C)ncnc3Cl)cc(C(C)C)c2n1 [I-127] | ≤ 20 | > 2500 |
| Cc1nn(CCO)cc1Nc1ncc2cc(-c3c(C)ncnc3C)cc(C(C)C)c2n1 [I-128] | ≤ 20 | > 2500 |
| Cc1nn(CCO)cc1Nc1ncc2cc(-c3c(C)ncnc3N)cc(C(C)C)c2n1 [I-129] | 20 to 100 | > 2500 |
| Cc1nn(CCO)cc1Nc1ncc2cc(-c3c(C)ncnc3O)cc(C(C)C)c2n1 [I-130] | 20 to 100 | > 2500 |
| COc1ncnc(C)c1-c1cc(C(C)C)c2nc(Nc3cn(CCO)nc3C)ncc2c1 [I-131] | ≤ 20 | > 2500 |
| Cc1nn(CCO)cc1Nc1ncc2cc(-c3ncnc(C)c3Br)cc(C(C)C)c2n1 [I-139] | ≤ 20 | 500 to 2500 |
| Cc1ncnc(C)c1-c1cc(C(C)C)c2nc(Nc3cn(CCO)nc3C(F)F)ncc2c1 [I-141] | 20 to 100 | > 2500 |
| Cc1nn(CCCO)cc1Nc1ncc2cc(-c3c(C)ncnc3C)cc(C(C)C)c2n1 [I-142] | ≤ 20 | > 2500 |
| Cc1ncnc(C)c1-c1cc(C(C)C)c2nc(Nc3cn(CCO)nc3Cl)ncc2c1 [I-143] | 20 to 100 | > 2500 |
| Cc1nn(CC(C)(C)O)cc1Nc1ncc2cc(-c3c(C)ncnc3C)cc(C(C)C)c2n1 [I-144] | ≤ 20 | > 2500 |
| Cc1cncnc1-c1cc(C2CC2)c2nc(Nc3cn(CCO)nc3C)ncc2c1 [I-148] | ≤ 20 | > 2500 |
| Cc1ncnc(C)c1-c1cc(C(F)(F)F)c2nc(Nc3cnn(CCO)c3)ncc2c1 [I-149] | 20 to 100 | > 2500 |
| Cc1nn(CCO)cc1Nc1ncc2cc(-c3c(C)ncnc3C)cc(C(F)(F)F)c2n1 [I-150] | ≤ 20 | > 2500 |
| Cc1nn(CCO)cc1Nc1ncc2cc(-c3cncnc3)cc(C(F)(F)F)c2n1 [I-151] | 20 to 100 | > 2500 |
| Cc1nn(CCO)cc1Nc1ncc2cc(-c3cncnc3C)cc(C(F)(F)F)c2n1 [I-152] | ≤ 20 | > 2500 |
| COc1ncncc1-c1cc(C(F)(F)F)c2nc(Nc3cn(CCO)nc3C)ncc2c1 [I-153] | ≤ 20 | > 2500 |
| Cc1nn(CCO)cc1Nc1ncc2cc(-c3c(O)cccc3F)cc(C(C)C)c2n1 [I-155] | ≤ 20 | 500 to 2500 |
| Cc1ccc(C#N)cc1-c1cc(C(C)C)c2nc(Nc3cnn(CCO)c3C)ncc2c1 [I-170] | ≤ 20 | > 2500 |
| Cc1c[nH]c(=O)cc1-c1cc(C(C)C)c2nc(Nc3cnn(CCO)c3C)ncc2c1 [I-181] | 20 to 100 | > 2500 |
| Cc1nn(CCO)cc1Nc1ncc2cc(-c3cn(C)nc3C)cc(C(C)C)c2n1 [I-188] | ≤ 20 | 500 to 2500 |
| Cc1cn(C)nc1-c1cc(C(C)C)c2nc(Nc3cn(CCO)nc3C)ncc2c1 [I-190] | ≤ 20 | 500 to 2500 |
| Cc1cnn(C)c1-c1cc(C(C)C)c2nc(Nc3cn(CCO)nc3C)ncc2c1 [I-191] | ≤ 20 | 500 to 2500 |
